Assay results reported in ChEMBL document CHEMBL5543084, “Development of cannabidiol derivatives as potent broad-spectrum antibacterial agents with membrane-disruptive mechanism” (Eur J Med Chem, 2024).
≈ marks a conversion by molar mass, not a printed value.

Key:
Pseudomonas aeruginosa [1] = experiment: In vivo antibacterial activity against Pseudomonas aeruginosa ATCC 9027 infected C57BL6 mouse corneal infection model assessed as reduction in bacterial burden at 3 mg/ml, TOP 4 times in a day for 2 consecutive days; type: functional; settings: time 2 day
Staphylococcus aureus [2] = experiment: In vivo antibacterial activity against Staphylococcus aureus ATCC 29213 infected C57BL6 mouse corneal infection model assessed as reduction in bacterial burden at 50 mg/ml, TOP 4 times in a day for 3 consecutive days; type: functional; settings: time 3 day
Staphylococcus aureus [3] = experiment: Drug resistance, ratio of MIC for Staphylococcus aureus NCTC 10442 after 21 passages to MIC for Staphylococcus aureus NCTC 10442 during first exposure; type: functional
Escherichia coli [4] = experiment: Bactericidal activity against Escherichia coli ATCC 25922 assessed as bacterial reduction at 8 time of MIC concentration incubated for 2 hrs by time-kill assay; type: functional
Escherichia coli [5] = experiment: Antibacterial activity against Escherichia coli ATCC 25922 assessed as inhibition of bacterial growth incubated for 24 hrs by broth dilution method; type: functional
[6] = Hemolytic activity against rabbit blood cells incubated for 1 hr relative to control; type: toxicity, cell-based, Oryctolagus cuniculus, Erythrocyte; settings: rabbit blood cells (erythrocytes)
Pseudomonas aeruginosa [7] = experiment: Antibacterial activity against Pseudomonas aeruginosa ATCC 9027 assessed as inhibition of bacterial growth incubated for 24 hrs by broth dilution method; type: functional
Acinetobacter baumannii [8] = experiment: Antibacterial activity against Acinetobacter baumannii ATCC 17978 assessed as inhibition of bacterial growth incubated for 24 hrs by broth dilution method; type: functional
Staphylococcus aureus [9] = experiment: Antibacterial activity against methicillin-resistant Staphylococcus aureus NCTC 10442 assessed as inhibition of bacterial growth incubated for 24 hrs by broth dilution method; type: functional
Staphylococcus aureus [10] = experiment: Antibacterial activity against methicillin-resistant Staphylococcus aureus N315 assessed as inhibition of bacterial growth incubated for 24 hrs by broth dilution method; type: functional
Staphylococcus aureus [11] = experiment: Antibacterial activity against Staphylococcus aureus ATCC 29213 assessed as inhibition of bacterial growth incubated for 24 hrs by broth dilution method; type: functional
Acinetobacter baumannii [12] = experiment: Antibacterial activity against Acinetobacter baumannii R2889 assessed as inhibition of bacterial growth incubated for 24 hrs by broth dilution method; type: functional
Klebsiella pneumoniae [13] = experiment: Antibacterial activity against Klebsiella pneumoniae ATCC 10031 assessed as inhibition of bacterial growth incubated for 24 hrs by broth dilution method; type: functional
Klebsiella pneumoniae [14] = experiment: Antibacterial activity against Klebsiella pneumoniae ATCC 14581 assessed as inhibition of bacterial growth incubated for 24 hrs by broth dilution method; type: functional

Structure (SMILES) | Activity (Pseudomonas aeruginosa [1]) [log10FFU/ml] | Activity (Staphylococcus aureus [2]) [log10FFU/ml] | Ratio (Staphylococcus aureus [3]) | Activity (Escherichia coli [4]) [log10FFU/ml] | MIC (Escherichia coli [5]) [µg/mL] | HC50 at 1 h [6] [µg/mL] | MIC (Pseudomonas aeruginosa [7]) [µg/mL] | MIC (Acinetobacter baumannii [8]) [µg/mL] | MIC (Staphylococcus aureus [9]) [µg/mL] | MIC (Staphylococcus aureus [10]) [µg/mL] | MIC (Staphylococcus aureus [11]) [µg/mL] | MIC (Acinetobacter baumannii [12]) [µg/mL] | MIC (Klebsiella pneumoniae [13]) [µg/mL] | MIC (Klebsiella pneumoniae [14]) [µg/mL]
NC[C@H]1O[C@H](O[C@H]2[C@H](O)[C@@H](O[C@H]3O[C@H](CO)[C@@H](O)[C@H](N)[C@H]3O)[C@H](N)C[C@@H]2N)[C@H](N)C[C@@H]1O [TOBRAMYCIN] | 4.64 | 5.21 |  |  |  |  |  |  |  |  |  |  |  | 
CCn1cc(C(=O)O)c(=O)c2cc(F)c(N3CCNCC3)cc21 [NORFLOXACIN] |  |  | 128 |  |  |  |  |  |  |  |  |  |  | 
CC1(C)S[C@@H]2[C@H](NC(=O)[C@H](N)c3ccc(O)cc3)C(=O)N2[C@H]1C(=O)O [AMOXICILLIN] |  |  | 8 | 2.9 | 6.25 (≈ 17.1 µM) | > 200 |  |  |  |  |  |  |  | 
C=C(C)[C@@H]1CCC(C)=C[C@H]1c1c(OCCCN)cc(CCCCC)cc1OCCCN |  |  |  |  | 6.25 (≈ 14.6 µM) | > 200 | > 50 | 6.25 (≈ 14.6 µM) | 6.25 (≈ 14.6 µM) | 6.25 (≈ 14.6 µM) | 6.25 (≈ 14.6 µM) | 12.5 (≈ 29.2 µM) | 6.25 (≈ 14.6 µM) | 12.5 (≈ 29.2 µM)
C=C(C)[C@@H]1CCC(C)=C[C@H]1c1c(OCCCCN(C)CCCN(C)CCCNC)cc(CCCCC)cc1OCCCCN(C)CCCN(C)CCCNC |  |  |  |  | 3.12 (≈ 4.06 µM) | > 200 | 6.25 (≈ 8.12 µM) | 6.25 (≈ 8.12 µM) | 1.56 (≈ 2.03 µM) | 3.12 (≈ 4.06 µM) | 1.56 (≈ 2.03 µM) | 3.12 (≈ 4.06 µM) | 6.25 (≈ 8.12 µM) | 6.25 (≈ 8.12 µM)
C=C(C)[C@@H]1CCC(C)=C[C@H]1c1c(OCCCCI)cc(CCCCC)cc1OCCCCI |  |  |  |  | > 100 | > 200 | > 50 | > 50 | > 50 | > 50 | > 50 | > 50 | > 50 | > 50
C=C(C)[C@@H]1CCC(C)=C[C@H]1c1c(OCCCCN(CCCC)CCCC)cc(CCCCC)cc1OCCCCN(CCCC)CCCC |  |  |  |  | > 100 | > 200 | > 50 | > 50 | > 50 | > 50 | > 50 | > 50 | > 50 | > 50
C=C(C)[C@@H]1CCC(C)=C[C@H]1c1c(OCCCCNC)cc(CCCCC)cc1OCCCCNC |  |  |  |  | 50 (≈ 103 µM) | 107 | > 50 | 25 (≈ 51.6 µM) | 3.12 (≈ 6.45 µM) | 3.12 (≈ 6.45 µM) | 3.12 (≈ 6.45 µM) | 25 (≈ 51.6 µM) | 25 (≈ 51.6 µM) | 50 (≈ 103 µM)
C=C(C)[C@@H]1CCC(C)=C[C@H]1c1c(OCCCCCNC(=N)N)cc(CCCCC)cc1OCCCCCNC(=N)N |  |  |  |  | 3.12 (≈ 5.49 µM) | 60.5 | 25 (≈ 43.9 µM) | 3.12 (≈ 5.49 µM) | 0.78 (≈ 1.37 µM) | 1.56 (≈ 2.74 µM) | 3.12 (≈ 5.49 µM) | 3.12 (≈ 5.49 µM) | 1.56 (≈ 2.74 µM) | 3.12 (≈ 5.49 µM)
